The compounds below were run on C3H strain mice (assay: Hair growth on clipped back skin, repeat with minoxidil control, Example 5). Settings: 0.01%; Week 1.
Assay type: in vivo
Protocol: (§1) The ability of topical administration of pyrethroid compounds to promote hair growth was assessed in female C3H strain mice (10 weeks old; n=5/group). Hair on the back skin of the mice was clipped carefully with an electric clipper. 5 μL/cm^2 of the five compositions tested in the examples above were applied to the mice daily. The level of hair growth at the applied skin areas were evaluated by unaided visual inspection at the indicated time. Cyclosporin A was used as a control.
The experiment described in Example 4 was repeated with a commercially available hair growth-promoting compound (5% minoxidil) as a control.

SMILES | Level of hair growth (unaided visual inspection)
CC1(C)[C@H](C(=O)O[C@H](C#N)c2cccc(Oc3ccccc3)c2)[C@@H]1C=C(Br)Br [Deltamethrin, deltamethrin] | 0

Same assay, conditions: 0.01%; Week 2

SMILES | Level of hair growth (unaided visual inspection)
CC1(C)[C@H](C(=O)O[C@H](C#N)c2cccc(Oc3ccccc3)c2)[C@@H]1C=C(Br)Br [Deltamethrin, deltamethrin] | 0

Same assay, conditions: 0.01%; Week 3

SMILES | Level of hair growth (unaided visual inspection)
CC1(C)[C@H](C(=O)O[C@H](C#N)c2cccc(Oc3ccccc3)c2)[C@@H]1C=C(Br)Br [Deltamethrin, deltamethrin] | 1

Same assay, conditions: 0.01%; Week 4

SMILES | Level of hair growth (unaided visual inspection)
CC1(C)[C@H](C(=O)O[C@H](C#N)c2cccc(Oc3ccccc3)c2)[C@@H]1C=C(Br)Br [Deltamethrin, deltamethrin] | 1

Same assay, conditions: 0.01%; Week 5

SMILES | Level of hair growth (unaided visual inspection)
CC1(C)[C@H](C(=O)O[C@H](C#N)c2cccc(Oc3ccccc3)c2)[C@@H]1C=C(Br)Br [Deltamethrin, deltamethrin] | 1

Same assay, conditions: 0.01%; Week 6

SMILES | Level of hair growth (unaided visual inspection)
CC1(C)[C@H](C(=O)O[C@H](C#N)c2cccc(Oc3ccccc3)c2)[C@@H]1C=C(Br)Br [Deltamethrin, deltamethrin] | 3

Same assay, conditions: 0.1%; Week 1

SMILES | Level of hair growth (unaided visual inspection)
CC1(C)[C@H](C(=O)O[C@H](C#N)c2cccc(Oc3ccccc3)c2)[C@@H]1C=C(Br)Br [Deltamethrin, deltamethrin] | 0

Same assay, conditions: 0.1%; Week 2

SMILES | Level of hair growth (unaided visual inspection)
CC1(C)[C@H](C(=O)O[C@H](C#N)c2cccc(Oc3ccccc3)c2)[C@@H]1C=C(Br)Br [Deltamethrin, deltamethrin] | 0

Same assay, conditions: 0.1%; Week 3

SMILES | Level of hair growth (unaided visual inspection)
CC1(C)[C@H](C(=O)O[C@H](C#N)c2cccc(Oc3ccccc3)c2)[C@@H]1C=C(Br)Br [Deltamethrin, deltamethrin] | 5

Same assay, conditions: 0.1%; Week 4

SMILES | Level of hair growth (unaided visual inspection)
CC1(C)[C@H](C(=O)O[C@H](C#N)c2cccc(Oc3ccccc3)c2)[C@@H]1C=C(Br)Br [Deltamethrin, deltamethrin] | 5

Same assay, conditions: 0.1%; Week 5

SMILES | Level of hair growth (unaided visual inspection)
CC1(C)[C@H](C(=O)O[C@H](C#N)c2cccc(Oc3ccccc3)c2)[C@@H]1C=C(Br)Br [Deltamethrin, deltamethrin] | 5

Same assay, conditions: 0.1%; Week 6

SMILES | Level of hair growth (unaided visual inspection)
CC1(C)[C@H](C(=O)O[C@H](C#N)c2cccc(Oc3ccccc3)c2)[C@@H]1C=C(Br)Br [Deltamethrin, deltamethrin] | 5

Same assay, conditions: 1%; Week 1

SMILES | Level of hair growth (unaided visual inspection)
CC1(C)[C@H](C(=O)O[C@H](C#N)c2cccc(Oc3ccccc3)c2)[C@@H]1C=C(Br)Br [Deltamethrin, deltamethrin] | 0

Same assay, conditions: 1%; Week 2

SMILES | Level of hair growth (unaided visual inspection)
CC1(C)[C@H](C(=O)O[C@H](C#N)c2cccc(Oc3ccccc3)c2)[C@@H]1C=C(Br)Br [Deltamethrin, deltamethrin] | 2

Same assay, conditions: 1%; Week 3

SMILES | Level of hair growth (unaided visual inspection)
CC1(C)[C@H](C(=O)O[C@H](C#N)c2cccc(Oc3ccccc3)c2)[C@@H]1C=C(Br)Br [Deltamethrin, deltamethrin] | 5

Same assay, conditions: 1%; Week 4

SMILES | Level of hair growth (unaided visual inspection)
CC1(C)[C@H](C(=O)O[C@H](C#N)c2cccc(Oc3ccccc3)c2)[C@@H]1C=C(Br)Br [Deltamethrin, deltamethrin] | 5

Same assay, conditions: 1%; Week 5

SMILES | Level of hair growth (unaided visual inspection)
CC1(C)[C@H](C(=O)O[C@H](C#N)c2cccc(Oc3ccccc3)c2)[C@@H]1C=C(Br)Br [Deltamethrin, deltamethrin] | 5

Same assay, conditions: 1%; Week 6

SMILES | Level of hair growth (unaided visual inspection)
CC1(C)[C@H](C(=O)O[C@H](C#N)c2cccc(Oc3ccccc3)c2)[C@@H]1C=C(Br)Br [Deltamethrin, deltamethrin] | 5

Same assay, conditions: concentrations of 0.1% and 1% in ethanol solutions

SMILES | Promoting hair growth
CC1(C)[C@H](C(=O)O[C@H](C#N)c2cccc(Oc3ccccc3)c2)[C@@H]1C=C(Br)Br [Deltamethrin, deltamethrin] | effective in promoting hair growth

Each compound was assayed on C3H strain mice (assay: Hair growth on clipped back skin, topical daily application, Example 4). Settings: 1% topical daily.
Assay type: in vivo
Protocol: as §1, with “time.” for “time. Cyclosporin A was used as a control.”

SMILES | Promoting hair growth
CC1(C)[C@H](C(=O)O[C@H](C#N)c2cccc(Oc3ccccc3)c2)[C@@H]1C=C(Br)Br [Deltamethrin, deltamethrin] | effective in promoting hair growth

Same assay, conditions: Day 7; 1%, 5 μL/cm^2 daily; n=5/group

SMILES | Level of hair growth (unaided visual inspection)
CC1(C)[C@H](C(=O)O[C@H](C#N)c2cccc(Oc3ccccc3)c2)[C@@H]1C=C(Br)Br [Deltamethrin, deltamethrin] | 0

Same assay, conditions: Day 14; 1%, 5 μL/cm^2 daily; n=5/group

SMILES | Level of hair growth (unaided visual inspection)
CC1(C)[C@H](C(=O)O[C@H](C#N)c2cccc(Oc3ccccc3)c2)[C@@H]1C=C(Br)Br [Deltamethrin, deltamethrin] | 0

Same assay, conditions: Day 19; 1%, 5 μL/cm^2 daily; n=5/group

SMILES | Level of hair growth (unaided visual inspection)
CC1(C)[C@H](C(=O)O[C@H](C#N)c2cccc(Oc3ccccc3)c2)[C@@H]1C=C(Br)Br [Deltamethrin, deltamethrin] | 1

Same assay, conditions: Day 29; 1%, 5 μL/cm^2 daily; n=5/group

SMILES | Level of hair growth (unaided visual inspection)
CC1(C)[C@H](C(=O)O[C@H](C#N)c2cccc(Oc3ccccc3)c2)[C@@H]1C=C(Br)Br [Deltamethrin, deltamethrin] | 5

Same assay, conditions: Day 36; 1%, 5 μL/cm^2 daily; n=5/group

SMILES | Level of hair growth (unaided visual inspection)
CC1(C)[C@H](C(=O)O[C@H](C#N)c2cccc(Oc3ccccc3)c2)[C@@H]1C=C(Br)Br [Deltamethrin, deltamethrin] | 5

These compounds were tested on mice (C3H strain) (assay: Ear thickness (primary skin irritancy) after topical application, Example 1). Settings: 1% in ethanol; C3H mice.
Assay type: in vivo
Protocol: The following example was performed to determine if pyrethroid compounds cause skin irritation (as indicated by ear thickness in mice). Skin irritants may contribute to promoting hair growth.
Prior to the experiment, ear thickness of mice (C3H strain, female, 16 weeks of age, n=3/group) was measured with a thickness gage (Mitsutoyo Corp.). After measuring ear thickness of both ears, 10 μL of ethanol was applied on left ear and 10 μL of a pyrethroid solution (1% pyrethroid compound in ethanol) was applied to the right ear. Ear thickness was measured for three consecutive days after administration.

SMILES | Ear thickness compared to ethanol
CC1(C)[C@H](C(=O)O[C@H](C#N)c2cccc(Oc3ccccc3)c2)[C@@H]1C=C(Br)Br [Deltamethrin, deltamethrin] | did not increase ear thickness

Same assay, conditions: day 0 (before application); C3H female mice, n=3

SMILES | Right ear thickness
CC1(C)[C@H](C(=O)O[C@H](C#N)c2cccc(Oc3ccccc3)c2)[C@@H]1C=C(Br)Br [Deltamethrin, deltamethrin] | 27.0 ×0.01 mm

Same assay, conditions: day 1; 10 μL of 1% in ethanol on right ear; C3H mice

SMILES | Right ear thickness
CC1(C)[C@H](C(=O)O[C@H](C#N)c2cccc(Oc3ccccc3)c2)[C@@H]1C=C(Br)Br [Deltamethrin, deltamethrin] | 27.3 ×0.01 mm

Same assay, conditions: day 2; 10 μL of 1% in ethanol on right ear; C3H mice

SMILES | Right ear thickness
CC1(C)[C@H](C(=O)O[C@H](C#N)c2cccc(Oc3ccccc3)c2)[C@@H]1C=C(Br)Br [Deltamethrin, deltamethrin] | 27.3 ×0.01 mm

Same assay, conditions: day 3; 10 μL of 1% in ethanol on right ear; C3H mice

SMILES | Right ear thickness
CC1(C)[C@H](C(=O)O[C@H](C#N)c2cccc(Oc3ccccc3)c2)[C@@H]1C=C(Br)Br [Deltamethrin, deltamethrin] | 28.0 ×0.01 mm

These compounds were tested on mice of the C3H strain (assay: Skin irritancy on clipped back skin, visual score, Example 3). Settings: three repeated topical administration, 1% in ethanol.
Assay type: in vivo
Protocol: This experiment was conducted to test the skin irritancy of the compositions of this invention on hair-growing areas of test subjects, i.e., female mice (10 weeks old) of the C3H strain (n=5 group). After clipping the hair of the back skin of mice with an electric clipper, 5 μL/cm^2 of each four composition tested in Examples 1 and 2 (at a concentration of 1% in an ethanol solution) were applied. The application was administered once a day, for 3 consecutive days. Skin irritation was evaluated by unaided visual inspection at the end of the third day.

SMILES | Skin irritation (redness)
CC1(C)[C@H](C(=O)O[C@H](C#N)c2cccc(Oc3ccccc3)c2)[C@@H]1C=C(Br)Br [Deltamethrin, deltamethrin] | failed to cause skin irritation

What follows are compounds tested on mice (Sencar strain) (assay: Ear thickness after TPA plus pyrethroid application, Example 2). Settings: day 0 (before application); Sencar female mice, n=3.
Assay type: in vivo
Protocol: Another ear thickness experiment was performed. Ear thickness of mice (Sencar strain, female, 10 weeks of age, n =3/group) was measured with a thickness gage (Mitsutoyo Corp.). After measuring the thickness of both ears at the beginning of the experiment, 20 μL of 12-O-tetradecanoyl-phorbol 13-acetate (TPA) at a concentration of 10^−4 M in acetone was applied on both ears, followed by the application of 10 μL of ethanol on the left ears and 10 μL of the four compositions tested in Example 1 on the right ears (at a concentration of 1% of pyrethroid compound in ethanol solution). Again, ear thickness was monitored over three consecutive days following administration of the compositions.

SMILES | Right ear thickness
CC1(C)[C@H](C(=O)O[C@H](C#N)c2cccc(Oc3ccccc3)c2)[C@@H]1C=C(Br)Br [Deltamethrin, deltamethrin] | 26.0 ×0.01 mm

Same assay, conditions: day 1; 20 μL TPA 10^−4 M in acetone then 10 μL of 1% in ethanol; Sencar mice

SMILES | Right ear thickness
CC1(C)[C@H](C(=O)O[C@H](C#N)c2cccc(Oc3ccccc3)c2)[C@@H]1C=C(Br)Br [Deltamethrin, deltamethrin] | 27.3 ×0.01 mm

Same assay, conditions: day 2; 20 μL TPA 10^−4 M in acetone then 10 μL of 1% in ethanol; Sencar mice

SMILES | Right ear thickness
CC1(C)[C@H](C(=O)O[C@H](C#N)c2cccc(Oc3ccccc3)c2)[C@@H]1C=C(Br)Br [Deltamethrin, deltamethrin] | 29.0 ×0.01 mm

Same assay, conditions: day 3; 20 μL TPA 10^−4 M in acetone then 10 μL of 1% in ethanol; Sencar mice

SMILES | Right ear thickness
CC1(C)[C@H](C(=O)O[C@H](C#N)c2cccc(Oc3ccccc3)c2)[C@@H]1C=C(Br)Br [Deltamethrin, deltamethrin] | 28.0 ×0.01 mm
